Measured values taken from BigSolDB 2.1.

Nc1ccc(Cl)cc1[N+](=O)[O-]
solubility (mole fraction)
Details | 278.15 K | 283.15 K | 288.15 K | 293.15 K | 298.15 K | 303.15 K | 308.15 K | 313.15 K | 318.15 K | 323.15 K
in 1,4-dioxane | – | – | 0.0282 | 0.0337 | 0.0405 | 0.0509 | 0.065 | 0.0828 | 0.105 | 0.133
in NMP | 0.0539 | 0.0605 | 0.0737 | 0.0887 | 0.106 | 0.125 | 0.142 | 0.167 | 0.187 | 0.223
in acetonitrile | 0.0327 | 0.0373 | 0.0442 | 0.053 | 0.0625 | 0.075 | 0.09 | 0.105 | 0.124 | 0.145
in cyclohexane | 0.000163 | 0.000195 | 0.000267 | 0.000354 | 0.000468 | 0.000613 | 0.000773 | 0.000983 | 0.00124 | 0.0016
in ethanol | 0.013 | 0.0144 | 0.0168 | 0.0194 | 0.0232 | 0.0277 | 0.0323 | 0.0371 | 0.043 | 0.0493
in ethyl acetate | 0.0193 | 0.0244 | 0.032 | 0.0418 | 0.0535 | 0.0684 | 0.0883 | 0.113 | 0.143 | 0.177
in ethylene glycol | 0.00179 | 0.00229 | 0.00281 | 0.00363 | 0.00453 | 0.00573 | 0.00737 | 0.00926 | 0.0118 | 0.0158
in isopropanol | 0.0111 | 0.0123 | 0.0145 | 0.0175 | 0.0208 | 0.0252 | 0.0296 | 0.0352 | 0.0406 | 0.0463
in methanol | 0.0158 | 0.017 | 0.0199 | 0.0239 | 0.0287 | 0.034 | 0.0403 | 0.0479 | 0.056 | 0.0667
in n-butanol | 0.00963 | 0.0107 | 0.0124 | 0.0146 | 0.0177 | 0.0215 | 0.0257 | 0.0301 | 0.0357 | 0.0427
in n-propanol | 0.0119 | 0.013 | 0.0152 | 0.018 | 0.0217 | 0.0259 | 0.0308 | 0.0362 | 0.042 | 0.0481
in water | 8e-06 | 1e-05 | 1.4e-05 | 1.9e-05 | 2.5e-05 | 3.3e-05 | 4.3e-05 | 5.5e-05 | 7e-05 | 8.6e-05
